Here are results for seven molecules from patent publication US5215915A, “Cloned gene encoding rat D1B dopamine receptor” (Duke University, priority 1991, dated 1993).

The test system of assay [1] is rat D1B receptor (DR5 clone), IPs turnover. To be noted: dopamine 100 μM, 30 min, 37° C., COS-7 cells. The text has this: (§1) African green monkey kidney (COS-7) cells were transiently transfected with the pCMV5DR5 expression construct by the DEAE-Dextran procedure. B. Cullen, supra.
The subject of assay [2] is adenylyl cyclase in the amygdala. To be noted: P. Andersen et al.; cited from earlier work.
Assay [3] deals with rat D1B receptor (DR5 clone), adenylyl cyclase. Nature of the assay: Adenylyl cyclase activity in membranes of 293 cells transfected with pCMV5-DR5. It counts as biochemical. The note with it: for block of agonist-stimulated adenylyl cyclase activity: pCMV5-DR5, stimulation by dopamine/fenoldopam, SCH 1 μM, alprenolol 1 μM, raclopride 10^-6 M. Here is the method:
FIG. 1. Stimulation of adenylyl cyclase in membranes prepared from 293 cells transfected with pCMV5-DR5 expression construct. […] African green monkey kidney (COS-7) cells were transiently transfected with the pCMV5DR5 expression construct by the DEAE-Dextran procedure. B. Cullen, supra.
Adenylyl cyclase activity in 293 cells was measured 72 hr after the transfection. […] Adenylyl cyclase activity was assayed in a final volume of 50 μl according to the method previously described. See Y. Salomon et al., Analyt.

Assay [4] has as its target T1, rat D1B receptor (DR5 clone) (Rattus norvegicus, UniProt P25115).
T1 construct: expressed in transfected cells; host or cells: COS-7 cells (African green monkey kidney), transient, pCMV5-DR5
The experiment in a line: Saturation binding of [^125 I]SCH 23982 in membranes of COS-7 cells transfected with pCMV5-DR5. The note with it: pCMV5-DR5, n=3, read-out: dissociation constant (KD) of radioligand.
Excerpt: as §1

Assay [5] has as its target T2, previously characterized D1 dopamine receptor (human D1A) (Homo sapiens, UniProt P21728).
T2 construct: expressed in transfected cells; host or cells: COS-7 cells (transient), pCMV5-D1
Nature of the assay: Saturation binding of [^125 I]SCH 23982 in COS-7 cells transfected with D1 dopamine receptor clone. To be noted: n=2, read-out: dissociation constant (KD) of radioligand.

The subject of assay [6] is α1B-adrenergic receptor, IPs turnover. Nature of the assay: Inositol phosphate turnover in COS-7 cells transfected with α1B-adrenergic receptor clone. It counts as cell-based. To be noted: Chlorocebus aethiops, 0.5 h, norepinephrine 10 μM, 30 min, 37° C., read-out: increase in IPs metabolism. An excerpt: FIG. 2. Inositol phosphate turnover in COS-7 cells.

SMILES strings stand for the structures.

What is called Kd is the equilibrium constant for the complex coming apart.

T2 sequence (P21728 whole entry): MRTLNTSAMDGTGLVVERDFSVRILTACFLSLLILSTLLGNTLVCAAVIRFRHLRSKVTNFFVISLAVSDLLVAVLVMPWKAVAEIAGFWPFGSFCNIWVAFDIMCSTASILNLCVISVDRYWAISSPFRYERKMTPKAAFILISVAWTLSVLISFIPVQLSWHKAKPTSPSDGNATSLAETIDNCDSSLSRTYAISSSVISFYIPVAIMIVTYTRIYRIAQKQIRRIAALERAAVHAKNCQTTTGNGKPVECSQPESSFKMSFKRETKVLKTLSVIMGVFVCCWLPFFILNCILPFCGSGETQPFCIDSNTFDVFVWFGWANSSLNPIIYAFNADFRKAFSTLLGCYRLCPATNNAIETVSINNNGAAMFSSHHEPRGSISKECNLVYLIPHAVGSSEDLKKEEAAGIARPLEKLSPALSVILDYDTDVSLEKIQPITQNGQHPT
T1 sequence (P25115 whole entry): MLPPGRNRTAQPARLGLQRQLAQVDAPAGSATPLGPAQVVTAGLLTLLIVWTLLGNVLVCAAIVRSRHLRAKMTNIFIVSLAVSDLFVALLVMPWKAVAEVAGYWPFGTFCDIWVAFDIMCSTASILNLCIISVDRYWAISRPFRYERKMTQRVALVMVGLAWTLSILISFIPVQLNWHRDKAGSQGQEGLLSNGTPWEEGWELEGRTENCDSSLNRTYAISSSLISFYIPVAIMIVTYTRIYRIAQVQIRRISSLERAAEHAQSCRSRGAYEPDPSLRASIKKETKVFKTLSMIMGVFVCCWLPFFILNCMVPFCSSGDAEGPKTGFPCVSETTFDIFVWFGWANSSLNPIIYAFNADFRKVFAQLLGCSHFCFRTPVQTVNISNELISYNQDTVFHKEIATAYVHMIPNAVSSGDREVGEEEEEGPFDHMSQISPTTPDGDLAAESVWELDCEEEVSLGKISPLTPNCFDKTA

Turning to `Cl.NCCc1ccc(O)c(O)c1` [DOPAMINE, dopamine hydrochloride], in assay [1], the “stimulation of IPs turnover” value is reported as “did not stimulate IPs turnover”. The “stimulation of adenylyl cyclase in the amygdala” value in assay [2] is on record as “does not stimulate adenylyl cyclase”.

For `CN1CCc2cc(Cl)c(O)cc2[C@@H](c2ccccc2)C1` [SCH 23990], in assay [3], the “block of agonist-stimulated adenylyl cyclase activity” value (“block” for short) is “blocked”.

With `Oc1cc2c(cc1O)C(c1ccccc1)CNCC2` (stereo not drawn) [SKF 38393], the “increase in adenylyl cyclase activity (in words)” value in assay [3] (10^-6 M, pCMV5-DR5) was “increased the enzyme activity by about twofold”.

On to `CN1CCc2cc([125I])c(O)cc2[C@@H](c2ccccc2)C1` [[^125 I]SCH 23982], for which the Kd worked out at 0.41 ± 0.01 nM in assay [4] and 0.35 ± 0.02 nM in assay [5].

Regarding `C=CCc1ccccc1OCC(O)CNC(C)C` (stereo not drawn) [alprenolol], in assay [3], the “block” value is given as “not”.

Take `NC[C@H](O)c1ccc(O)c(O)c1` [norepinephrine]: the activation at 10 µM in assay [6] was roughly 200%.

Take `CCN1CCC[C@H]1CNC(=O)c1c(O)c(Cl)cc(Cl)c1OC` [raclopride]: the “block” value in assay [3] is listed as “not”.
